Results published in publication PMC12136037, “Type II kinase inhibitors that target Parkinson’s disease–associated LRRK2” (Science Advances, 2025).

How the values were obtained:
[1] = target: T1, ~100 representative kinases (Homo sapiens, UniProt P51813); test: DSF 100 kinase selectivity screen; type: binding; conditions: Protein BMX; average of three replicates;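 further: compound tested at 20 µM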
T1 construct: Recombinant protein kinase domains with a concentration of 2 μM
T1 sequence (P51813 1-675): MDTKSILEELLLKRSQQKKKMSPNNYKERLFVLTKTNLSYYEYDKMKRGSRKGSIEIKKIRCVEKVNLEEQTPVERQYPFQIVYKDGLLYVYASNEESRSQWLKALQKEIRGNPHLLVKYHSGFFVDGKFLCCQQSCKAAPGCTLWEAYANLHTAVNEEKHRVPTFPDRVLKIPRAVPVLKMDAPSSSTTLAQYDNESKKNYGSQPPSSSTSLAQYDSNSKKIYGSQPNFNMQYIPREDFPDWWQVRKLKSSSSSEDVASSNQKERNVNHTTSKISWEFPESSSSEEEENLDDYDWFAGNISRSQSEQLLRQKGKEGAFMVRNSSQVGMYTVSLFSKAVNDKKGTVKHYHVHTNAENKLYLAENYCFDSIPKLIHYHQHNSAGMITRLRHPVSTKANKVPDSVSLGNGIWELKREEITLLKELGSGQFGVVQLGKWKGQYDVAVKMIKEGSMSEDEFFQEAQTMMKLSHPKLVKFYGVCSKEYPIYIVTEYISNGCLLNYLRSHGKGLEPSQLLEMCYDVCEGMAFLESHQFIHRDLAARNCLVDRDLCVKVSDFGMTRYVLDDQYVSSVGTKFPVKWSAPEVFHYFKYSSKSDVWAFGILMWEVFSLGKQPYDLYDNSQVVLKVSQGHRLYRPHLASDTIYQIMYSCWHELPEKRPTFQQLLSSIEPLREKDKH
Method in brief: (§1)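 Each kinase domain, at 2 μM, is mixed with 20 μM test compound and SYPRO Orange in Hepes (20 mM, pH 7.5) with 500 mM NaCl. Temperature is then raised at 3°C/min and fluorescence-monitored unfolding yields the melting temperature change, ΔTm in degrees Celsius.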

[2] = target: T2, ~100 representative kinases (Homo sapiens, UniProt P51955); test: DSF 100 kinase selectivity screen; type: binding; conditions: protein NEK2; average of three replicates;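 further: compound tested at 20 µM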
T2 construct: Recombinant protein kinase domains with a concentration of 2 μM
T2 sequence (P51955 1-445): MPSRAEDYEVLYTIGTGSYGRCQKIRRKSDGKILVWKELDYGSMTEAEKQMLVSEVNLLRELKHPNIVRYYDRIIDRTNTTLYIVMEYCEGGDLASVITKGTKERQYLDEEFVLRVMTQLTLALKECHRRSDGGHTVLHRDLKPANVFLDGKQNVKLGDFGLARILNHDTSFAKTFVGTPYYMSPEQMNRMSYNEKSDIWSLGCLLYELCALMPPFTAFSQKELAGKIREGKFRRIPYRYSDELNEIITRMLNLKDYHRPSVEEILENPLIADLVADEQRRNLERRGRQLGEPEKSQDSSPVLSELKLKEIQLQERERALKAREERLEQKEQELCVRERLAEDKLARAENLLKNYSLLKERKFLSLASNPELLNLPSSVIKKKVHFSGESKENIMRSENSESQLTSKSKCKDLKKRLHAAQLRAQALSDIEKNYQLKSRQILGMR
Method in brief: as §1

Row | SMILES | dTm [1] [K] | dTm [2] [K]
1 | O=C(Nc1cccc(-c2c[nH]c3ncnc(N4CCOCC4)c23)c1)C1(C(=O)Nc2ccc(F)cc2F)CC1 [Compound 23] | 0.22 | 1.54
2 | CC(=O)N1CCN(c2nc(Cl)nc3[nH]cc(-c4cccc(NC(=O)Nc5cc(C(C)(C)C)nn5-c5ccc(C)cc5)c4)c23)CC1 [Compound 31] | -1.76 | -1.71
3 | Cc1cc(NC(=O)C2(C(=O)Nc3ccc(F)cc3)CC2)cc(-c2c[nH]c3ncnc(N4CCOCC4)c23)c1 [Compound 6] | 0.51 | 0.05
4 | O=C(Nc1ccccc1)C1(C(=O)Nc2cccc(-c3c[nH]c4ncnc(N5CCOCC5)c34)c2)CC1 [Compound 12] | 0.86 | 1.92
5 | Cn1cc(-c2c[nH]c3ncnc(N4CCOCC4)c23)cc1C#N [PFE-360] | 0.47 | –
6 | COc1cc2c(Oc3ccc(NC(=O)C4(C(=O)Nc5ccc(F)cc5)CC4)cc3F)ccnc2cc1OCCCN1CCOCC1 [Foretinib, reference compound] | 6.77 | 1.91
7 | Cc1ccc(C(=O)Nc2ccc(CN3CCN(C)CC3)c(C(F)(F)F)c2)cc1C#Cc1cnc2[nH]ncc2c1 [GZD-824, reference compound] | – | 0.45
8 | CCNc1nc(Nc2cc(F)c(C(=O)N3CCOCC3)cc2OC)ncc1C(F)(F)F [GNE-7915] | -0.0422 | 0.39
9 | Cc1ccc(NC(=O)C2(C(=O)Nc3cccc(-c4c[nH]c5ncnc(N6CCOCC6)c45)c3)CC2)cc1 [Compound 14] | 0.15 | 0.85
10 | O=C(Nc1ccc(F)cc1)C1(C(=O)Nc2cccc(-c3c[nH]c4ncnc(N5CCOCC5)c34)c2)CC1 [Compound 2] | 0.39 | 0.52
11 | CN[C@@H]1C[C@H]2O[C@@](C)([C@@H]1OC)n1c3ccccc3c3c4c(c5c6ccccc6n2c5c31)C(=O)NC4 [Staurosporine] | – | 4.25
12 | Cc1cc(F)ccc1NC(=O)C1(C(=O)Nc2cccc(-c3c[nH]c4ncnc(N5CCOCC5)c34)c2)CC1 [Compound 24] | 0.32 | 1.66
13 | COc1cc(S(C)(=O)=O)ccc1Nc1nc(N(C)C)c2c(Cl)c[nH]c2n1 [Compound 37] | -0.17 | -1.77
14 | O=C(Nc1cccc(-c2c[nH]c3ncnc(N4CCOCC4)c23)c1)C1(C(=O)Nc2ccc(F)c(Br)c2F)CC1 [Compound 26] | -0.35 | -4.02
15 | C[C@@H]1CN(c2cc(-c3n[nH]c4ccc(OC5(C)CC5)cc34)ncn2)C[C@H](C)O1 [MLi2] | -2.53 | -0.21
16 | COc1cc(NC(=O)C2(C(=O)Nc3cccc(-c4c[nH]c5ncnc(N6CCOCC6)c45)c3)CC2)ccc1F [Compound 21] | 0.38 | 1.38
17 | CNC(=O)c1cc(Oc2ccc(NC(=O)Nc3cc(C(C)(C)C)nn3-c3ccc4ncccc4c3)c(F)c2)ccn1 [Rebastinib, reference compound] | 7.16 | 2.06
18 | O=C(Nc1cccc(-c2c[nH]c3ncnc(N4CCOCC4)c23)c1)C1(C(=O)Nc2cc(Br)c(F)cc2F)CC1 [Compound 25] | 1.31 | -3.69
19 | O=C(Nc1cc(F)cc(Br)c1)C1(C(=O)Nc2cccc(-c3c[nH]c4ncnc(N5CCOCC5)c34)c2)CC1 [Compound 27] | 0.52 | -2.11
20 | O=C(Nc1cccc(-c2c[nH]c3ncnc(N4CCOCC4)c23)c1)c1cccn(-c2ccc(F)cc2)c1=O [Compound 4] | 1.71 | 0.47
21 | CCSc1nc(NC)c2c(-c3cccc(NC(=O)Nc4cc(C(C)(C)C)nn4-c4ccc(C)cc4)c3)c[nH]c2n1 [Compound 32] | -0.26 | 0.87

Second part, the compound after the results:

Row | dTm [1] [K] | dTm [2] [K] | SMILES
22 | 1.40 | 1.19 | Cc1cc(NC(=O)C2(C(=O)Nc3cccc(-c4c[nH]c5ncnc(N6CCOCC6)c45)c3)CC2)ccc1F [Compound 20]
23 | 0.24 | -0.29 | O=C(Nc1cccc(-c2c[nH]c3ncnc(N4CCOCC4)c23)c1)C1(C(=O)Nc2ccc(F)c(Br)c2)CC1 [Compound 19]
24 | -1.99 | -0.71 | Cc1ccc(-n2nc(C(C)(C)C)cc2NC(=O)Nc2cccc(-c3c[nH]c4nc(Cl)nc(N5CCOCC5)c34)c2)cc1 [Compound 30]
25 | 2.95 | 2.21 | CC(C)(C)c1cc(NC(=O)Nc2cccc(-c3c[nH]c4ncnc(N5CCOCC5)c34)c2)n(-c2ccc3ncccc3c2)n1 [Compound 28]
26 | 1.17 | -1.56 | O=C(Nc1cccc(-c2c[nH]c3ncnc(N4CCOCC4)c23)c1)C1(C(=O)Nc2cccc3c2CCC3)CC1 [Compound 11]
27 | 1.13 | 1.39 | O=C(Nc1cccc(-c2c[nH]c3ncnc(N4CCOCC4)c23)c1)C1(C(=O)Nc2ccc(F)c(Cl)c2)CC1 [Compound 18]
28 | 0.67 | 2.76 | O=C(Nc1ccc(Cl)cc1)C1(C(=O)Nc2cccc(-c3c[nH]c4ncnc(N5CCOCC5)c34)c2)CC1 [Compound 13]
29 | -0.34 | -0.68 | COc1cc(C(=O)N2CCOCC2)c(F)cc1Nc1nc(N(C)C)c2c(Cl)c[nH]c2n1 [Compound 36]
30 | -0.18 | 2.18 | COc1ccc(NC(=O)C2(C(=O)Nc3cccc(-c4c[nH]c5ncnc(N6CCOCC6)c45)c3)CC2)cc1 [Compound 16]
31 | 0.11 | 2.27 | CCc1ccc(NC(=O)C2(C(=O)Nc3cccc(-c4c[nH]c5ncnc(N6CCOCC6)c45)c3)CC2)cc1 [Compound 15]
32 | 2.21 | -0.44 | Cc1ccc(-n2nc(C(C)(C)C)cc2NC(=O)Nc2cccc(-c3c[nH]c4ncnc(N5CCOCC5)c34)c2)cc1 [Compound 29]
33 | 0.61 | 2.00 | O=C(Nc1cccc(-c2c[nH]c3ncnc(N4CCOCC4)c23)c1)C1(C(=O)Nc2ccc(F)c(F)c2)CC1 [Compound 17]
34 | 1.60 | 4.11 | Cc1ccc(C(=O)Nc2ccc(CN3CCN(C)CC3)c(C(F)(F)F)c2)cc1C#Cc1c[nH]c2ncnc(N3CCOCC3)c12 [Compound 1]
35 | 1.67 | 0.62 | CC(C)(C)c1cccc(NC(=O)C2(C(=O)Nc3cccc(-c4c[nH]c5ncnc(N6CCOCC6)c45)c3)CC2)c1 [Compound 22]
